Reference: patent publication US20070112068A1, “Nitrile compound and its use in pest control” (priority 2003, published 2007)

Columns and labels:
Format in all cases: in vivo
Blattalla germanica = experiment: Experimental Example 3: treated filter paper with sucrose bait, German cockroach; conditions: 500 ppm, 0.7 ml on filter paper; two male imagoes; after 6 days
Method: A filter paper having a diameter of 5.5 cm was spread on the bottom of a polyethylene cup having a diameter of 5.5 cm and 0.7 ml of the experimental pesticidal solution was added dropwise onto the filter paper. As a bait 30 mg of sucrose was uniformly placed on the filter paper. Into the polyethylene cup, two male Blattalla germanica imagoes were released and the cup was sealed with a lid. After 6 days, the number of surviving Blattalla germanica was examined and the death rate of the pest was calculated.

[1] = test system: Haemaphysalis longicornis; experiment: Experimental Example 7: treated polypropylene film pouch, Haemaphysalis longicornis; conditions: 0.22 ml of 0.25% (w/v) methanol solution on film; 10 young mites; after 48 hours
Method: A 0.25% (w/v) solution of the present compound (31) in methanol was prepared. Onto one side of a polypropylene film having 5.7 cm (height)×16.5 cm (width), 0.22 ml of the solution was added dropwise uniformly (except for 5 mm width from the edges of the film) and then air-dried. Thereafter, the film was folded in half widthwise in a way that the side containing the present compound became the inner face of the folded film. Then, the two longer sides (5 mm width each) of the folded film were heat-sealed to obtain a pouch. 10 young mites of Haemaphysalis longicornis were put into the polypropylene film pouch. The opening part of the polypropylene film pouch was closed with a clip. After 48 hours, the number of surviving Haemaphysalis longicornis was examined and the death rate of the pest was calculated.

Periplaneta fuliginosa = experiment: Experimental Example 16: treated filter paper in paper box, Periplaneta fuliginosa; conditions: 0.1 ml of 5% (w/v) acetone solution on filter paper in paper box; after 7 days
Method: 5% (w/v) solutions of the present compounds (23), (24) and (31) in acetone were prepared. 0.1 ml of the solution was added dropwise onto a filter paper with 2 cm×2 cm and then air-dried. This filter paper was attached to the center of the inside bottom of a paper box having 10 cm (width)×2 cm (height)×7 cm (depth) with a two-sided tape. One hole of 2 mm in width and 2 cm in height was made through one side of this box. This box was placed in a plastic vat with 25 cm×20 cm×8 cm in height and therein 3 females and 3 males of Periplaneta fuliginosa were released. The inside wall of the plastic vat used in this experiment was coated with talc for preventing the escape of cockroaches. The plastic vat contained feed and water and left at 25° C. After 7 days, Periplaneta fuliginosa was observed and the death rate of the pest was calculated. This experiment was repeated two times.

Halyomorpha mista = experiment: Experimental Example 24: direct oil spray in CSMA chamber, Halyomorpha mista; conditions: 0.4 ml of 5% (w/v) oil sprayed directly; after 72 hours
Method: 1.5 g of the present compound (31) is dissolved in 30 mL of a mixed solvent of 90 parts by weight of Isopar M (isoparaffin; the registered trade name of Exxon Chemical) and 10 parts by weight of dichloromethane to prepare a 5% (w/v) oil. A plastic cup (860 mL) containing 10 imagoes of Halyomorpha mista is covered with a nylon net (mesh width: 2 mm) and then placed on the bottom of a CSMA chamber (width: 46 cm, depth: 46 cm, height: 70 cm). 0.4 ml of the oil is directly sprayed on the test Halyomorpha mista from the upper side of the CSMA chamber. After 10 seconds from spraying, the cup containing Halyomorpha mista is removed, and feed and water are placed in the cup.

Clogmia albipunctata = experiment: Experimental Example 9: treated filter paper suspended in glass chamber, Clogmia albipunctata; conditions: 2.5 ml of 2% (w/v) acetone solution on filter paper; 70 cm cube chamber; 2 hours exposure, 24 hours later
Method: (§1) A 2% (w/v) solution of the present compound (31) in acetone was prepared. Onto a filter paper with 10 cm×12.5 cm, 2.5 ml of the solution was added dropwise uniformly and then air-dried. This filter paper was suspended from the center of the ceiling of a glass chamber with 70 cm (width)×70 cm (depth)×70 cm (height) and therein 20 imagoes of Clogmia albipunctata were released. After 2 hours, all test pests were collected, put into a plastic cup together with absorbent cotton impregnated with 5% sugar water, and then left at 25° C. After 24 hours, the number of surviving Clogmia albipunctata was examined and the death rate was calculated (2 repetitions).

Culex pipiens pallens [2] = experiment: Experimental Example 27: fan-ventilated knitted fabric preparation, Culex pipiens pallens; conditions: preparation of Formulation Example 10 ventilated by electric fan; 20 minutes exposure, after 24 hours
Method: A preparation of the present compound (31) prepared according to Formulation Example 10 is set at the upper part of an electric fun shown in FIG. 5 and then placed on the center of the floor of a chamber having 70 cm (width)×70 cm (depth)×70 cm (height). After the electric fan is operated to initiate to ventilate the preparation, about 20 female imagoes of Culex pipiens pallens are released in the chamber. After 20 minutes, all test pests are collected, placed in a plastic cup together with absorbent cotton impregnated with 5% sugar water, and left at 25° C.

Coptotermes formosanus = experiment: Experimental Example 12: topical application, Coptotermes formosanus; conditions: 0.2 μl of 0.005% (w/v) solution onto notum of thorax of ergates; after one day
Method: The present compound (31) was dissolved in a 0.05% (w/v) solution of Sudan red 7B in acetone so that the present compound concentration was 0.005% (w/v) to prepare an experimental pesticidal solution. Onto the notum of the thorax of ergates of Coptotermes formosanus, 0.2 μl of this experimental solution was added dropwise. After one day from treatment, the number of surviving pests was examined and the death rate of the pest was calculated.

Megaselia spiracularis = experiment: Experimental Example 8: treated filter paper suspended in glass chamber, Megaselia spiracularis; conditions: 2.5 ml of 2% (w/v) acetone solution on filter paper; 70 cm cube chamber; 2 hours exposure, 24 hours later
Method: as §1, with “Megaselia spiracularis” for “Clogmia albipunctata”, “in” for “into”, “calculated.” for “calculated (2 repetitions).”

Culex pipiens pallens [3] = experiment: Experimental Example 26: liquid-absorbing wick-type heat-vaporizing product, Culex pipiens pallens; conditions: liquid-absorbing wick-type product (Formulation Example 19); 20 minutes exposure, after 24 hours
From the text: A part of a liquid-absorbing wick-type heat-vaporizing pesticidal product of the present compound (31) prepared according to Formulation Example 19 is set on a heater for a liquid absorbing wick-type heat-vaporizing pesticide, and then placed on the center of the floor of a chamber having 70 cm (width)×70 cm (depth)×70 cm (height). After the part of a liquid-absorbing wick-type heat-vaporizing pesticidal product is initiated to be heated with the heater, about 20 female imagoes of Culex pipiens pallens are released in the chamber. After 20 minutes, all test pests are collected, placed in a plastic cup together with absorbent cotton impregnated with 5% sugar water, and left at 25° C.

N#CC(C#N)(CCC(F)(F)F)CC(F)(F)C(F)(F)C(F)(F)C(F)F [(31)]
death rate of the pest (Blattalla germanica): 100%
death rate of the pest [1]: 100%
death rate of the pest (Periplaneta fuliginosa): 100%
pesticidal effect (Halyomorpha mista): pesticidal effect on Halyomorpha mista is confirmed
death rate of the pest (Clogmia albipunctata): 83%
pesticidal effect (Culex pipiens pallens [2]): pesticidal effect on Culex pipiens pallens is confirmed
death rate of the pest (Coptotermes formosanus): 100%
death rate of the pest (Megaselia spiracularis): 100%
pesticidal effect (Culex pipiens pallens [3]): pesticidal effect on Culex pipiens pallens is confirmed
